Measured values taken from BindingDB's records for PubMed 2017157 (Medical Research Service, 1991).

Target: D(2) dopamine receptor (Mus musculus, UniProt P61168)
Sequence (P61168 whole entry): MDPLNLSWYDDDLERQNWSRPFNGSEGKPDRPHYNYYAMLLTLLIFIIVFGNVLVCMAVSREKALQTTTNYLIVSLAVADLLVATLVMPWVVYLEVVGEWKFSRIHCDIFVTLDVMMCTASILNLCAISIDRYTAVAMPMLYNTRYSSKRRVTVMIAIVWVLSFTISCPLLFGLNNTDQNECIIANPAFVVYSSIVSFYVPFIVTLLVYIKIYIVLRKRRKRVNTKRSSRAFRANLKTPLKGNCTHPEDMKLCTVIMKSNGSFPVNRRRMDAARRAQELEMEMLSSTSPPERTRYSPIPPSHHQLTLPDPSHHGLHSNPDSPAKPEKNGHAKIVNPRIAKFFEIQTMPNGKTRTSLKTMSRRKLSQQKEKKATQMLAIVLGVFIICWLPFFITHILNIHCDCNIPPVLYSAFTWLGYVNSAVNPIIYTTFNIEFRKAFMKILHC

SMILES: CCN1CCC[C@H]1CNC(=O)c1cc(I)cc(OC)c1OC
- Ki: 0.05 nM

SMILES: O=c1[nH]c2ccccc2n1C1CCN(CCCC(c2ccc(F)cc2)c2ccc(F)cc2)CC1 [1-(1-(4,4-bis(4-fluorophenyl)butyl)piperidin-4-yl)-1H-benzo[d]imidazol-2(3H)-one]
- Ki: 0.19 nM

SMILES: OCCN1CCN(CC/C=C2/c3ccccc3Sc3ccc(C(F)(F)F)cc32)CC1 [(cis) 2-{4-[3-(2-Trifluoromethyl-thioxanthen-9-ylidene)-propyl]-piperazin-1-yl}-ethanol(Flupentixol)]
- Ki: 0.48 nM

SMILES: CC(C)C[C@H]1C(=O)N2CCC[C@H]2[C@]2(O)O[C@](NC(=O)[C@@H]3C=C4c5cccc6[nH]c(Br)c(c56)C[C@H]4N(C)C3)(C(C)C)C(=O)N12 [Bromocriptine+ (GTP+)]
- Ki: 0.69 nM

SMILES: CCCN1CCCC(c2cccc(O)c2)C1 (configuration not stated) [CAS_85976-54-1]
- Ki: 5620 nM

SMILES: CCN1CCCC1CNC(=O)c1cc(S(N)(=O)=O)ccc1OC (configuration not stated) [N-[(1-ethylpyrrolidin-2-yl)methyl]-2-methoxy-5-sulfamoylbenzamide]
- Ki: 14.4 nM

SMILES: O=C(O)c1ccccc1C(=O)Nc1cccc2ccccc12 [NPA,(+)]
- Ki: 7.07 nM
